# Data from ChEMBL document CHEMBL1150297, “Beta-amino acid substitutions and structure-based CoMFA modeling of hepatitis C virus NS3 protease inhibitors” (Bioorg Med Chem, 2008).
# Assay: Inhibition of HCV NS3 protease by fluorescence plate reader
# Design: species or system Hepacivirus hominis
compound,measurement,value
COc1ccc2c(O[C@@H]3C[C@@H](CC(=O)NC4(C(=O)NS(=O)(=O)c5ccccc5)CC4)N(C(=O)[C@@H](NC(=O)OC(C)(C)C)C(C)C)C3)cc(-c3ccccc3)nc2c1,Ki,1800 nM
COc1ccc2c(O[C@@H]3C[C@@H](C(=O)NC4(C(=O)NS(=O)(=O)c5ccccc5)CC4)N(C(=O)C[C@@H](NC(=O)OC(C)(C)C)C(C)C)C3)cc(-c3ccccc3)nc2c1,Ki,1200 nM
COc1ccc2c(O[C@@H]3C[C@@H](C(=O)NC4(C(=O)O)CC4)N(C(=O)C[C@@H](NC(=O)OC(C)(C)C)C(C)C)C3)cc(-c3ccccc3)nc2c1,Ki,17000 nM
COc1ccc2c(O[C@@H]3C[C@@H](C(=O)NC4(C(=O)O)CC4)N(C(=O)[C@@H](NC(=O)OC(C)(C)C)C(C)C)C3)cc(-c3ccccc3)nc2c1,Ki,320 nM
COc1ccc2c(O[C@@H]3C[C@@H](C(=O)NC4(CC(=O)O)CC4)N(C(=O)[C@@H](NC(=O)OC(C)(C)C)C(C)C)C3)cc(-c3ccccc3)nc2c1,Ki,18000 nM
COc1ccc2c(O[C@@H]3C[C@@H](C(=O)NC4(C(=O)NS(=O)(=O)c5ccccc5)CC4)N(C(=O)[C@@H](NC(=O)OC(C)(C)C)C(C)C)C3)cc(-c3ccccc3)nc2c1,Ki,55 nM
COc1ccc2c(O[C@@H]3C[C@@H](C(=O)NC4(CC(=O)NS(=O)(=O)c5ccccc5)CC4)N(C(=O)[C@@H](NC(=O)OC(C)(C)C)C(C)C)C3)cc(-c3ccccc3)nc2c1,Ki,14000 nM
COc1ccc2c(O[C@@H]3C[C@@H](C(=O)NC4(C(=O)C(=O)O)CC4)N(C(=O)[C@@H](NC(=O)OC(C)(C)C)C(C)C)C3)cc(-c3ccccc3)nc2c1,Ki,1000 nM
COc1ccc2c(O[C@@H]3C[C@@H](CC(=O)NC4(C(=O)O)CC4)N(C(=O)[C@@H](NC(=O)OC(C)(C)C)C(C)C)C3)cc(-c3ccccc3)nc2c1,Ki,61000 nM
